Tests used:
Type in all cases: cell-based
[1] = tested on: Jurkat cells; experiment: 6TG selection of shHPRT-N6 CAR expressing Jurkat cells; conditions: Jurkat cells, 0, 1, or 3 uM 6TG for four days, trypan blue
Description: (§1) FIGS. 2A-2D. 6TG selection of HPRT repressed CAR T-cells. FIG. 2A. Quantitative PCR analysis of HPRT expression following transfection of shHPRT plasmid. Untransfected Jurkat cells were used as a control. FIG. 2B. N6 CAR (control) or shHPRT-N6 CAR were transduced into Jurkat cells and co-cultured with either gp120 expressing HEK293 cells or HEK293 parental cells for 24 hours. Following incubation, the Jurkat cells were analyzed for CD69 expression by flow cytometry. FIG. 2C.

[2] = tested on: T-cells; experiment: 6TG dose titration and multi-dosing selection of enrichment anti-HIV CAR T-cells
Description: The cell counts of the T-cells, in addition to anti-HIV CAR expression percentage were measured over the course of culturing.

[3] = tested on: T-cells; experiment: Growth and phenotype of enrichment anti-HIV CAR T-cells after 6TG selection
[4] = tested on: gp160-expressing HEK293 cells; experiment: CD69 activation of 6TG enriched anti-HIV CAR Jurkat cells co-cultured with gp160-expressing HEK293 cells; conditions: 24 hour incubation, 6TG selected vs unselected anti-HIV CAR Jurkat cells
Description: Following a 24 hour incubation, CD69 expression was analyzed.

[5] = tested on: HPRT; experiment: Quantitative PCR of HPRT expression after transfection of shHPRT plasmid in Jurkat cells; conditions: transfected with shHPRT plasmid, FIG. 2A
Description: as §1

[6] = tested on: CCR5; experiment: CCR5 knockdown in Magi.CCR5 reporter cells (PCR and flow cytometry)
Excerpt: FIGS. 5A-5C. Wobble base CCR5 shRNAs functionality. FIG. 5A. Quantitative PCR analysis of MAGI.CCR5 cells transduced with protection CAR (shCCR5w shTat/Rev anti-HIV CAR), compared to mock-transduced cells and cells transduced with conventional anti-HIV CAR without the shRNA. Decreased levels of CCR5 mRNA indicate successful knock-down using the protection CAR. FIG. 5B. CCR5 surface expression on MAGI.CCR5 cells transduced with the protection CAR compared to CCR5 expression on mock-transduced cells and on cells transduced with anti-HIV CAR without the shRNA. FIG. 5C. CCR5 surface expression on T-cells transduced with protection CAR (shCCR5w shTat/Rev anti-HIV CAR), compared to mock-transduced cells and cells transduced with conventional anti-HIV CAR without the shRNA. Decreased levels of CCR5 are indicative of successful knockdown using anti-CCR5 shRNA.
Next, Applicant determined whether the shRNAs were functional. To test the shCCR5, Applicant transfected the protection and conventional CAR into Magi reporter line expressing CCR5 (Magi.CCR5). […] To confirm knock-down of CCR5, Applicant transduced T-cells with protection and conventional anti-HIV CAR constructs and analyzed CCR5 surface expression.

Compound: Nc1nc(=S)c2[nH]cnc2[nH]1 [6TG, 6-thioguanine]
- cell counts and viability after 6TG [1]: eliminates cells that lack the anti-HPRT shRNA
- enrichment of anti-HIV CAR T-cells at 50 nM ([2]; 50 nM 6TG, single dose titration): most enrichment potential
- effect on cell counts at 100 nM ([2]; 100 nM 6TG): loss of a number of T-cells transduced with the enrichment anti-HIV CAR construct
- effect on cells at 1 M 6TG ([2]; 6TG, data not shown): loss of all T-cells
- effect on cell counts at 10, 20, and 50 nM ([2]; 10, 20, and 50 nM 6TG): exerted toxic effects on the non-transduced T-cells
- optimized dose of 6TG to enrich CAR T-cells ([2]; without impacting growth): 50 nM
- growth of anti-HIV CAR T-cells ([3]; 6TG-treated vs not subjected to 6TG): equivalent
- total T-cell growth ([3]; after treatment with 6TG): decreased over the course of culture
- exhaustion markers (PD-1, Tim3, Lag-3) ([3]; following 6TG treatment): No noticeable changes
- activation as assessed by CD69 levels [4]: decrease in activation

Compound: anti-HPRT shRNA: shRNA that downregulates expression of the HPRT gene, SEQ ID NO:12 (GCACUGAAUAGAAAUGGUGGUUCAAGAGAUCACUAUUUCUAUUCAGUGCUU)
- HPRT expression [5]: robustly repressed

Compound: shCCR5w: anti-CCR5 shRNA wobble base, SEQ ID NO: 11 (AGUGUCAAGUCCAAUUUGUGGUUCAAGAGAUCAUAGAUUGGACUUGACACUUU)
- CCR5 knockdown [6]: successful in knocking down CCR5
